The subject of assay [1] is human neural stem cells (hNSCs). The assay is described as follows: Neuronal differentiation of human neural stem cells (TUJ-1 antibody staining). Particulars: for EC50: Homo sapiens, Neural stem cell, read-out: EC50 for neuronal differentiation; for effect on neuronal differentiation: dose response. Type of assay: cell-based.
Excerpt: (§1) Mitogen-free test media with a positive control for neuronal differentiation was used along with basal media without growth factors as a negative control.
as §1, §1, §1, §1
Human neural stem cells (hNSCs) were isolated and grown in monolayer culture, plated, treated with varying concentrations of benazepril (test compound), and stained with TUJ-1 antibody, as described above. Mitogen-free test media with a positive control for neuronal differentiation was used along with basal media without growth factors as a negative control.
Human neural stem cells (hNSCs) were isolated and grown in monolayer culture, plated, treated with varying concentrations of trandolapril (test compound), and stained with TUJ-1 antibody, as described in above. Mitogen-free test media with a positive control for neuronal differentiation was used along with basal media without growth factors as a negative control.
Human neural stem cells (hNSCs) were isolated and grown in monolayer culture, plated, treated with varying concentrations of candesartan (test compound), and stained with TUJ-1 antibody, as described in above. Mitogen-free test media with a positive control for neuronal differentiation was used along with basal media without growth factors as a negative control.
Human neural stem cells (hNSCs) were isolated and grown in monolayer culture, plated, treated with varying concentrations of telmisartan (test compound), and stained with TUJ-1 antibody, as described in above. Mitogen-free test media with a positive control for neuronal differentiation was used along with basal media without growth factors as a negative control.
Human neural stem cells (hNSCs) were isolated and grown in monolayer culture, plated, treated with varying concentrations of ibudilast and/or captopril (test compounds), and stained with TUJ-1 antibody, as described above. Mitogen-free test media with a positive control for neuronal differentiation was used along with basal media without growth factors as a negative control.
Human neural stem cells (hNSCs) were isolated and grown in monolayer culture, plated, treated with varying concentrations of enoximone and/or captopril (test compounds), and stained with TUJ-1 antibody, as described above. Mitogen-free test media with a positive control for neuronal differentiation was used along with basal media without growth factors as a negative control.
Human neural stem cells (hNSCs) were isolated and grown in monolayer culture, plated, treated with varying concentrations of ibudilast and/or candesartan (test compounds), and stained with TUJ-1 antibody, as described above. Mitogen-free test media with a positive control for neuronal differentiation was used along with basal media without growth factors as a negative control.
Human neural stem cells (hNSCs) were isolated and grown in monolayer culture, plated, treated with varying concentrations of baclofen and/or captopril (test compounds), and stained with TUJ-1 antibody, as described above. Mitogen-free test media with a positive control for neuronal differentiation was used along with basal media without growth factors as a negative control.
Human neural stem cells (hNSCs) were isolated and grown in monolayer culture, plated, treated with varying concentrations of donepezil and/or captopril (test compounds), and stained with TUJ-1 antibody, as described above.

The subject of assay [2] is mGlu7 and mGlu8. Particulars: at higher concentrations (e.g., above 1 μM); cited from earlier work.
For assay [3], the system named is KA, AMPA, and NMDA iGlu receptors. Particulars: cited from earlier work.
The target in assay [4] is mGluR3 (Homo sapiens, UniProt Q14832). Particulars: read-out: IC50 against mGluR3; cited from earlier work.
The target in assay [5] is mGluR2 (Homo sapiens, UniProt Q14416). The conditions noted are these: read-out: IC50 against mGluR2; cited from earlier work.
Assay [6] has as its system Group I or Group III receptors. The conditions noted are these: at sub-mM concentrations; cited from earlier work.
Assay [7] addresses human mGlu2 receptors (Homo sapiens, UniProt Q14416). Particulars: in vitro; low nanomolar range; read-out: EC50 against human mGlu2 receptors; cited from earlier work.
Assay [8] addresses human mGlu3 receptors (Homo sapiens, UniProt Q14832). The conditions noted are these: in vitro; low nanomolar range; read-out: EC50 against human mGlu3 receptors; cited from earlier work.
Where [9] appears, read: agent alone, percentage of neuronal positive control, basal media values subtracted.
Setting [10] is: agent alone, FIG. 6-9, percentage of neuronal positive control, basal media values subtracted.

Read-outs that look alike come from different tables or passages of the source.

mGluR2, sequence (Q14416 19-872): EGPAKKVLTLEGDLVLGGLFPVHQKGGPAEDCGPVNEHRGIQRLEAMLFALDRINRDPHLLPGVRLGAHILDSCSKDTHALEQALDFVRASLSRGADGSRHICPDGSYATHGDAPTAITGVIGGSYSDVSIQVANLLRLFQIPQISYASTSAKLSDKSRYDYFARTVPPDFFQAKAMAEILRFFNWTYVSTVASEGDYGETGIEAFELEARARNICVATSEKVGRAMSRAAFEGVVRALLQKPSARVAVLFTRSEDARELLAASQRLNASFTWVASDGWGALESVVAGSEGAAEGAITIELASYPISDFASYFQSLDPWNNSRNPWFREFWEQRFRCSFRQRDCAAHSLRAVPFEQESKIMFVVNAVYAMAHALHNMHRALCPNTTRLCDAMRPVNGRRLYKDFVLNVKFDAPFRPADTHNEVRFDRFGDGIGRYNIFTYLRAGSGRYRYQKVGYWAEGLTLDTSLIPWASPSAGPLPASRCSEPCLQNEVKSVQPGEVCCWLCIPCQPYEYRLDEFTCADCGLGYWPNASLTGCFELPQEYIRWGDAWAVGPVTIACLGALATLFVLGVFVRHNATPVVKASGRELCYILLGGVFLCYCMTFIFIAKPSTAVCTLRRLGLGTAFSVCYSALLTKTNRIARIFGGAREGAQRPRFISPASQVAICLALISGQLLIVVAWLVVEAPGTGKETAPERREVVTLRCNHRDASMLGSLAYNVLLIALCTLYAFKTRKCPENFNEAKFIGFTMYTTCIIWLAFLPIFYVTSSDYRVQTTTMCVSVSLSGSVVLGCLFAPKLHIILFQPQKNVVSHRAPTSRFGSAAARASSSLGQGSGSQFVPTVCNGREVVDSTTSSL
human mGlu2 receptors, sequence (Q14416 19-872): as above
mGluR3, sequence (Q14832 23-879): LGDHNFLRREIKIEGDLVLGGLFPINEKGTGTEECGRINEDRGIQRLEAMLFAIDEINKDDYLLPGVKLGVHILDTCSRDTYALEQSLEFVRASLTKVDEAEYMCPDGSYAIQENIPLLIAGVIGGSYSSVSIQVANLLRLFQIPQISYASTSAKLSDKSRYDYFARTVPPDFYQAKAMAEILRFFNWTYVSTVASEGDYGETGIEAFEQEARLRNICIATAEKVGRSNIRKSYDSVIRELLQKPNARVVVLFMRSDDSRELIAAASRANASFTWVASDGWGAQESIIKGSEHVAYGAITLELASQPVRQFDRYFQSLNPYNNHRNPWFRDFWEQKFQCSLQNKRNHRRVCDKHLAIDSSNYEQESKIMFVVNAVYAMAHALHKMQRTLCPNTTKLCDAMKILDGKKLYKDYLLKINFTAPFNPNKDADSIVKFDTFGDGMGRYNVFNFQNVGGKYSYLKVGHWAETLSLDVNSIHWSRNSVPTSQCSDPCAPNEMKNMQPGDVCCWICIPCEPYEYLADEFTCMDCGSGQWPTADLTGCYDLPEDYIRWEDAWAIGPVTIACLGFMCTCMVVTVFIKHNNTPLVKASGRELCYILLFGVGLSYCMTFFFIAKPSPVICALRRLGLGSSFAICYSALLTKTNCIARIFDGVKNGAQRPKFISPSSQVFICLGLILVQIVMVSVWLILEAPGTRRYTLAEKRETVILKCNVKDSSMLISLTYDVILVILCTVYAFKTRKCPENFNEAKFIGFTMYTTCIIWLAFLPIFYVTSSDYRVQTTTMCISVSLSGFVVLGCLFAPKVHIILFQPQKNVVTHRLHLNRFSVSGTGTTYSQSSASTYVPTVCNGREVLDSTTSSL
human mGlu3 receptors, sequence (Q14832 23-879): as above

The EC50 is the concentration needed to bring the measured effect to its halfway point. Consider `C[C@H](CS)C(=O)N1CCC[C@H]1C(=O)O` [captopril, 1-[(2S)-3-mercapto-2-methylpropionyl]-1-proline], for which the 50% effective concentration (EC50) in assay [1] (setting [9]) was 3.8 µM. For the same compound, the “effect on neuronal differentiation” value in assay [1] (agent alone) is “promoted neuronal differentiation”.
As to `N[C@](CC1c2ccccc2Oc2ccccc21)(C(=O)O)[C@H]1C[C@@H]1C(=O)O` [LY341495, (2S)-2-amino-2-(1S,2S-2-carboxycycloprop-1-yl)-3-(xanth-9-yl)propanoic acid], the “activity against mGlu7 and mGlu8” value in assay [2] was “antagonist activity”. The “activity against KA, AMPA, and NMDA iGlu receptors” value in assay [3] was “substantially inactive”.
`CC(C)C(=O)c1c(C(C)C)nn2ccccc12` [ibudilast]: the EC50 in assay [1] (setting [9]) is 6.2 µM.
Regarding `CSc1ccc(C(=O)c2[nH]c(=O)[nH]c2C)cc1` [enoximone], the EC50 in assay [1] (setting [9]) is 6.8 µM.
For the compound `COc1cc2c(cc1OC)C(=O)C(CC1CCN(Cc3ccccc3)CC1)C2` (stereo not shown) [donepezil], the EC50 in assay [1] was 2 µM.
On to `CCOC(=O)[C@H](CCc1ccccc1)N[C@H]1CCc2ccccc2N(CC(=O)O)C1=O` [benazepril, 2-[4-(1-ethoxycarbonyl-3-phenyl-propyl)amino-5-oxo-6-azabicyclo[5.4.0]undeca-7,9,11-trien-6-yl]acetic acid], for which the concentration giving a half-maximal response (EC50) in assay [1] (setting [10]) was determined as 3.3 µM. Further, the “effect on neuronal differentiation” value in assay [1] (agent alone) is “promoted neuronal differentiation”.
Regarding `CCCc1nc2c(C)cc(-c3nc4ccccc4n3C)cc2n1Cc1ccc(-c2ccccc2C(=O)O)cc1` [telmisartan, 2-[4-[[4-methyl-6-(1-methylbenzoimidazol-2-yl)-2-propyl-benzoimidazol-1-yl]methyl]phenyl]benzoic acid], the EC50 in assay [1] (setting [10]) is roughly 0.03 µM; in assay [1] (setting [9]) it was 0.06 µM. In assay [1] (agent alone), the “effect on neuronal differentiation” value was “promoted neuronal differentiation”.
For the compound `CCCCc1nc(Cl)c(CO)n1Cc1ccc(-c2ccccc2-c2nnn[nH]2)cc1` [losartan, [2-butyl-5-chloro-3-[[4-[2-(2H-tetrazol-5-yl)phenyl]phenyl]methyl]-3H-imidazol-4-yl]methanol], the EC50 in assay [1] (setting [9]) worked out at 0.9 µM. For the same compound, the “effect on neuronal differentiation” value in assay [1] (agent alone) is “promoted neuronal differentiation”.
The matching figures for `CCOC(=O)[C@H](CCc1ccccc1)N[C@@H](C)C(=O)N1CCC[C@H]1C(=O)O` [enalapril, (S)-1-[N-[1-(ethoxycarbonyl)-3-phenylpropyl]-1-alanyl]-1-proline]: 0.5 µM and “promoted neuronal differentiation”.
Regarding `CCOC(=O)C(CCc1ccccc1)NC(C)C(=O)N1C(C(=O)O)CC2CCCCC21` (stereo not shown) [trandolapril, 1-[2-[(1-ethoxycarbonyl-3-phenyl-propyl)amino]propanoyl]-2,3,3a,4,5,6,7,7a-octahydroindole-2-carboxylic acid], in assay [1] (setting [10]), the EC50 was roughly 35 µM. The “effect on neuronal differentiation” value in assay [1] (agent alone) was “promoted neuronal differentiation”.
Take `NCC(CC(=O)O)c1ccc(Cl)cc1` (stereo not shown) [baclofen]: in assay [1] (setting [9]), the EC50 was determined as 3.2 µM.
By IC50 is commonly meant the point on the concentration scale where inhibition reaches its midpoint. `NC1(C(=O)O)CCc2cc(P(=O)(O)O)ccc21` (racemic) [APICA, (RS)-1-amino-5-phosphonoindan-1-carboxylic acid]: the IC50 in assay [4] and in assay [5] was roughly 30 µM each time. The “activity against Group I or Group III receptors” value in assay [6] is reported as “no appreciable activity”.
For the compound `CCOc1nc2cccc(C(=O)O)c2n1Cc1ccc(-c2ccccc2-c2nnn[nH]2)cc1` [candesartan, 2-ethoxy-3-[[4-[2-(2H-tetrazol-5-yl)phenyl]phenyl]methyl]-3H-benzoimidazole-4-carboxylic acid], the figures for the EC50 in assay [1] (setting [10]) and in assay [1] (setting [9]) were roughly 0.84 µM and 2.2 µM, respectively. In assay [1] (agent alone), the “effect on neuronal differentiation” value is given as “promoted neuronal differentiation”.
Regarding `N[C@@]1(C(=O)O)CO[C@H]2[C@H](C(=O)O)[C@H]21` [LY379268, (−)-2-oxa-4-aminobicyclohexane-4,6-dicarboxylic acid], the EC50 in assay [7] and in assay [8] was less than 0.01 µM each time.
As to `NCCCC[C@H](N[C@@H](CCc1ccccc1)C(=O)O)C(=O)N1CCC[C@H]1C(=O)O` [lisinopril, (S)-1-(N(sup 2)-(1-carboxy-3-phenylpropyl)-L-lysyl)-L-proline], in assay [1] (setting [9]), the EC50 is 9.1 µM. The “effect on neuronal differentiation” value in assay [1] (agent alone) is reported as “promoted neuronal differentiation”.
Take `CC(=O)SC[C@@H](C)C(=O)N1CCC[C@H]1C(=O)N[C@@H](Cc1ccccc1)C(=O)O` [alacepril, 1-(D-3-acetylthio-2-methylpropanoyl)-L-prolyl-L-phenylalanine]: the EC50 in assay [1] (setting [9]) came out at 13 µM. Further, in assay [1] (agent alone), the “effect on neuronal differentiation” value is reported as “promoted neuronal differentiation”.
As to `CCCc1nc(C)c2c(=O)[nH]c(-c3cc(S(=O)(=O)N4CCN(CC)CC4)ccc3OCC)nn12` [vardenafil], the EC50 in assay [1] (setting [9]) was found to be 8.6 µM.
Take `COc1ccc(C2CNC(=O)C2)cc1OC1CCCC1` (stereo not shown) [rolipram]: the concentration for a half-maximal effect (EC50) in assay [1] (setting [9]) worked out at 2.3 µM.
Same read-out and setting: the figure for `Cn1c(=O)c2[nH]cnc2n(C)c1=O` [theophylline] is 16.4 µM.

The values above are taken from patent US7858611B2, “Neurogenesis by modulating angiotensin” (BrainCells Inc., priority 2006, dated 2010).
